Publication PMC6268275, “Use of Spectroscopic, Zeta Potential and Molecular Dynamic Techniques to Study the Interaction between Human Holo-Transferrin and Two Antagonist Drugs: Comparison of Binary and Ternary Systems” (Molecules, 2012)
Counter-ions that a name gives are not always drawn.

Target: T1, human holo-transferrin (hTf) (Homo sapiens, UniProt P02787)
T1 construct: gene TF; commercial holo (iron-loaded) glycoprotein, Sigma-Aldrich; mature full length, 679 residues, ~79 kDa, N-lobe and C-lobe, no tag stated
T1 sequence (P02787 20-698): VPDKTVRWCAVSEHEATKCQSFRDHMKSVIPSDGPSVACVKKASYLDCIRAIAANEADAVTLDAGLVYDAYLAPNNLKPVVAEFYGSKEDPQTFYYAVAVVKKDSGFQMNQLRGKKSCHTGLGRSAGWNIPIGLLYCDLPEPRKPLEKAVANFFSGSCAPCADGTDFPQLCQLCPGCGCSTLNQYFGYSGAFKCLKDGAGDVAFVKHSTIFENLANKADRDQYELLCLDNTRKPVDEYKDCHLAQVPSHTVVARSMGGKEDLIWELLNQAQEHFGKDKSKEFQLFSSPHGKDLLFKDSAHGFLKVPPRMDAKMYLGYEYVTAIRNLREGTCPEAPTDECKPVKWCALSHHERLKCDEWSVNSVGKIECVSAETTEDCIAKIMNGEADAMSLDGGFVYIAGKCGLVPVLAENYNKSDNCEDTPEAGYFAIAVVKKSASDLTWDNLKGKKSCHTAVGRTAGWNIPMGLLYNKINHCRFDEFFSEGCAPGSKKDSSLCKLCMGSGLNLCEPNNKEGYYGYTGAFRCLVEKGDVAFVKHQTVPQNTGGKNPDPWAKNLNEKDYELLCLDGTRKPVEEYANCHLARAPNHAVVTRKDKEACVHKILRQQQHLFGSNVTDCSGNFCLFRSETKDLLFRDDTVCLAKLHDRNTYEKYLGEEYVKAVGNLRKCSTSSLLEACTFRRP
Test: intrinsic fluorescence quenching titration
Format: binding
Settings: double-log, excitation 280 nm, 50 mM potassium phosphate pH 7.4, 298 K
From the text: intrinsic fluorescence quenching titration on human holo-transferrin (hTf)

Row | K b ( L mol^-1) / λ ex = 280 nM (stronger of two sites, binary system without aspirin) | Compound | K b ( L mol^-1) / λ ex = 280 nM (one site, binary system without ropinirole)
1 | – | CC(=O)Oc1ccccc1C(=O)O [aspirin, 2-acetoxy benzoic acid] | (7.83 ± 0.02) × 10^3 L mol^-1
2 | (1.69 ± 0.03) × 10^6 L mol^-1 | CCCN(CCC)CCc1cccc2c1CC(=O)N2 [ropinirole hydrochloride, 4-[2-(dipropylamino)ethyl]-1,3-dihydro-2H-indol-2-one monohydro-chloride] | –
